Results: article PMC8545135, “Discovery of Bacterial Fimbria–Glycan Interactions Using Whole-Cell Recombinant Escherichia coli Expression” (mBio, 2021)

Columns and labels:
[1] = target: T1, K88 (E. coli); F4ac (K88ac) fimbriae, MS428(pK88-AC) (Escherichia coli, UniProt P14190); assay: whole-cell SPR, Biacore T200, C1 chip, single-cycle kinetics; assay type: cell-based; settings: fimbriae on immobilized whole cells; MS428 reference cell
T1 construct: gene faeG; native F4ac fimbriae on whole cells of fim-negative E. coli MS428, plasmid pK88-AC with F4ac gene cluster
Source text: whole-cell SPR, Biacore T200, C1 chip, single-cycle kinetics on K88 (E. coli); F4ac (K88ac) fimbriae, MS428(pK88-AC)

[2] = target: T2, FimH^LD (purified FimH lectin-binding domain) (Escherichia coli, UniProt P08191); assay: SPR, CM5 chip, immobilized protein; settings: glycans 1.6 nM to 1 μM
T2 construct: purified as previously described
Source text: SPR, CM5 chip, immobilized protein on FimH^LD (purified FimH lectin-binding domain)

[3] = target: T3, FimH (E. coli); type 1 fimbriae, MS428(pPKL4) (Escherichia coli, UniProt P08191); assay: whole-cell SPR, Biacore T200, C1 chip, single-cycle kinetics; assay type: cell-based; settings: fimbriae on immobilized whole cells; MS428 reference cell
T3 construct: with Type-1 fimbrial protein, A chain; Protein FimF; Protein FimG
Source text: whole-cell SPR, Biacore T200, C1 chip, single-cycle kinetics on FimH (E. coli); type 1 fimbriae, MS428(pPKL4)

T1 sequence (P14190 22-283 limits assumed): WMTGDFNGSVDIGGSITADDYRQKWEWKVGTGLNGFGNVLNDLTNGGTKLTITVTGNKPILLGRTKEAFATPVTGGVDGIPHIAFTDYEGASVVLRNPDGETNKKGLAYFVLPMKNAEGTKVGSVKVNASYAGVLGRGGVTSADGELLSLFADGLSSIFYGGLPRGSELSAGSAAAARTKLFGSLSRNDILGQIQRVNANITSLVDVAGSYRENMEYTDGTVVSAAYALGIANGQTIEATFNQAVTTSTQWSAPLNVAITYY
T2 sequence (P08191 22-179): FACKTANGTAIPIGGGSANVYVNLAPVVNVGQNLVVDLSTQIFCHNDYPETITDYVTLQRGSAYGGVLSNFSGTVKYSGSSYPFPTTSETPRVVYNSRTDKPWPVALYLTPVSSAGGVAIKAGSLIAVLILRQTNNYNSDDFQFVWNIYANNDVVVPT
T3 sequence (P08191 22-300): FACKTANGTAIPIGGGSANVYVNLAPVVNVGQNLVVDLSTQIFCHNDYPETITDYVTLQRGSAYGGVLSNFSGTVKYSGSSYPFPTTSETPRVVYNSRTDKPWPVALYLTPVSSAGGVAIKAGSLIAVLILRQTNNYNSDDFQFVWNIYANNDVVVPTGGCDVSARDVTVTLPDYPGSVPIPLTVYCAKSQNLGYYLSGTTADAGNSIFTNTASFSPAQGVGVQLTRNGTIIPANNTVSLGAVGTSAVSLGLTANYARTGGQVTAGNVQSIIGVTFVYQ
T3 sequence (P04128 24-182, further chain): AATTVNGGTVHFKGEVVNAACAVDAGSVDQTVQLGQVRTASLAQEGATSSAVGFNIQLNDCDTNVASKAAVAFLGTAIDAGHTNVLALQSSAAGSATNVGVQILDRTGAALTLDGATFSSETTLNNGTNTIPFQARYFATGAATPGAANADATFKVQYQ

Molecule | Disassociation constant^a: / K88 (E. coli) [1] | Disassociation constant^a: / FimH (protein) [2] | Disassociation constant^a: / FimH (E. coli) [3]
CC(=O)N[C@H]1[C@H](O[C@@H]2[C@H](O)[C@@H](O)[C@H](O[C@H]3[C@H](O)[C@@H](O)C(O)O[C@@H]3CO)O[C@@H]2CO)O[C@H](CO)[C@H](O)[C@@H]1O[C@@H]1O[C@H](CO)[C@H](O)[C@H](O)[C@H]1O (stereo partly drawn) [1F, AsialoGM1] | 11.02 ± 3.9 µM |  | 
OCC1OC(OCC2OC(OCC3OC(O)C(O)C(OC4OC(CO)C(O)C(O)C4O)C3O)C(O)C(OC3OC(CO)C(O)C(O)C3O)C2O)C(O)C(O)C1O (stereo not drawn) [Man5] |  | 607 ± 142 nM | 2.0 ± 0.842 µM
OC[C@H]1O[C@H](O[C@H]2[C@@H](O)[C@@H](CO)OC(O)[C@@H]2O)[C@H](O)[C@@H](O)[C@H]1O (stereo partly drawn) [Galα1-3Gal] | 0.1603 ± 0.03 µM |  | 
Man5NAc |  | 25.9 ± 8.9 nM | 0.0274 ± 0.0168 µM
